US8637040B2, “Genus-wide chlamydial peptide vaccine antigens” (priority 2008, dated 2014)

Columns and labels:
C trachomatis = experiment: DFA staining of vaginal smears after challenge of peptide-immunized mice; assay type: in vivo, mouse; conditions: mice immunized three times at 100 μg doses; days 7 and 14 post-challenge
Source text: Mice are challenged with a human biovar of C trachomatis (K or E serovars for urogenital infections; C or B serovars for ocular infection).
Groups of 4-8 mice are “masked” as to pretreatment before challenge with live elementary bodies (EB). At weekly intervals through at least 4 wks, vaginal (or conjunctival) swabs are collected for isolation culture and direct fluorescence antibody staining for EB.
Using the murine models described above, the present inventors immunized mice with one of the four peptides (Pep4, 7, 8 or 10) administered three times at 100 μg doses. Results of direct fluorescent antibody (DFA) staining are summarized for days 7 and 14 post-challenge in FIGS. 10-11.

[1] = Encapsulation of Pep4 in PLGA nanoparticles and peptide release; assay type: physicochemical; conditions: carbonate buffer, ELISA with anti-Pep4 antiserum standard curve
Protocol: One preferred approach to the preparation of peptide-loaded polylactide (PLA) or PLGA micro- and/or nanoparticles follows. Biodegradable PLA or PLGA nanoparticles (NPs) loaded with the selected peptides is prepared using a modified version of the double emulsion solvent evaporation technique, in a procedure similar to that previously described by Li and co-workers (139). […] Briefly, an aqueous solution of the peptide is emulsified in dichloromethane containing the PLGA (using an ultrasonic homogenizer), thus forming the primary water-in-oil (w/o) emulsion. The prepared w/o emulsion is then emulsified in a second aqueous phase containing polyvinyl alcohol (PVA) as stabilizer, thus resulting in the multiple w/o/w emulsion. The double emulsion is later added into a large volume of aqueous solution of PVA, and stirred for several hours to evaporate the organic solvent. The resulting nanoparticles are then collected by centrifugation and washed (removing PVA) several times before lyophilization to remove the remaining water (139,140). The powder is kept at −80° C. until use. […] Optimal peptide loading concentrations for protective immunization are determined empirically, e.g., by comparing orally delivered peptide-NP to free peptide delivered subcutaneously. […]

chlamydia = experiment: Gross anatomical observation of genital tract inflammation after challenge; assay type: in vivo, mouse; conditions: female mice primed and boosted twice SC, necropsy ~28 days post-challenge, vs adjuvant-only control
Source text: FIG. 15A-15C is a set of three photographs showing the gross morphology of tissues of the female reproductive tract of mice immunized and then challenged 28 days earlier with Pep4 or Pep7. Mice had been primed and boosted twice SC, as above, and were challenged with chlamydia 2 weeks later, rechallenged and sacrificed 4 weeks after re-challenge. Inflamed genital tracts outlined in dashed lines.
Genital tracts were exposed at necropsy ˜28 days post-challenge to score inflammatory changes (and then removed for histological analysis). […] Representative examples for recipients of Peptides 4 and 7 are shown in the center and right panels, respectively. Yellow arrows point to uterine horns (which are further demarcated with dashed lines). It is evident that the peptide immunogens reduced the gross pathology of the genital tract even weeks after challenge. This has been reproduced in a second experiment in which control mice received an irrelevant peptide instead of Peptides 4 or 7. Based on what is known in the art from other contexts, the histopathological results are expected to be consistent with these gross anatomical observations.

human sera = experiment: ELISA of human serum samples on 4 peptides (Example XI); assay type: binding
Protocol: Blood was collected prior to immunizations and prior to the two boosts. Sera were tested in ELISA. The ELISA method used in the present examples, in which many if not all the parameters and conditions may be varied or modified in ways that are completely conventional in the art, is described below. • 1. 96 well plates (Immulon HBX4) were coated with 50 μl of diluted antigen (peptides at 1 μg/well made in carbonate buffer) and incubated overnight at 4° C. • 2. Unbound antigen was removed by flicking the contents of the plate into a sink without further washing. • 3. Non-specific binding was blocked or prevented by adding 300 μL/well of 4% BSA/PBS-Tween 20 (0.05%). This was allowed to incubate for 2 hour at room temperature. • 4. The plates were washed once with PBS-Tween 20 (0.05%) and 50 μl of primary antibody was added per well at appropriate dilutions. When using serum, the starting dilution was 1:40 and was further diluted by doublings to 1:80, 1:160, and 1:320 (or higher as desired). Plates were incubated for 1 hour at 37° C. • 5. Plates were washed three times with PBS-Tween (0.05%) as above and 100 μl of secondary antibody was added per well at appropriate dilutions. For alkaline phosphatase-conjugated goat anti-mouse IgG-AP, a dilution of 1:500 was used here. Plates were incubated for 1 hour at 37° C. • 6. Plates were again washed three times as above and 200 μl of substrate solution for Alkaline phosphatase (p-nitro phenyl phosphate or pNPP) was added at a concentration of 5 mg/ml. The color reaction was read in an automated microplate reader at a frequency of […] and the absorbance (or optical density) was registered (referred to as A405 or OD405) Several important observations were made in these tests against the 4 peptides: (a) all 4 peptides were immunogenic and induced increasing anti-peptide responses with subsequent boosts in all mice (except in one non-responder) (FIG. 3). […] See also FIG. 16A-16B
Human sera were tested by PCR for expression of several chlamydial genes, by IHC against C. trachomatis-infected cells and by ELISA against several of the peptides of the present invention. Results are shown in Table 7 (below) which include results from PCR-studies for presence of DNA encoding the chlamydial Major Outer Membrane Protein (MOMP) in human peripheral blood mononuclear cells (PBMC) (which are primarily lymphocytes and monocytes) and cervical swabs
Also shown is IHC staining of C. trachomatis-infected human HEp2 cells and binding of antibodies in the patient samples to four peptides of the present invention (Pep4, 7, 8, and 10) in ELISA.

AFPQFRSATLLL [Pep4]
DFA scores (C trachomatis): reduced DFA scores
bacterial shedding measured by DFA staining (C trachomatis): reduced bacterial shedding
release of peptide [1]: about 3.8 μg/ml/day
gross inflammation / pathology of the genital tract (chlamydia): not nearly as inflamed
ELISA 1:40 on 4 peptides Scale: 1+-3+ (human sera; human serum sample # 1): 2
ELISA 1:40 on 4 peptides Scale: 1+-3+ (human sera; human serum sample # 2): 0.75
ELISA 1:40 on 4 peptides Scale: 1+-3+ (human sera; human serum sample # 3): 2.5
ELISA 1:40 on 4 peptides Scale: 1+-3+ (human sera; human serum sample # 5): 2
ELISA 1:40 on 4 peptides Scale: 1+-3+ (human sera; human serum sample # 7): 0.75
ELISA 1:40 on 4 peptides Scale: 1+-3+ (human sera; human serum sample # 8): 3
ELISA 1:40 on 4 peptides Scale: 1+-3+ (human sera; human serum sample # 9): 3
ELISA 1:40 on 4 peptides Scale: 1+-3+ (human sera; human serum sample # 10): 3
ELISA 1:40 on 4 peptides Scale: 1+-3+ (human sera; human serum sample # 12): 2
ELISA 1:40 on 4 peptides Scale: 1+-3+ (human sera; human serum sample # 13): 2
ELISA 1:40 on 4 peptides Scale: 1+-3+ (human sera; human serum sample # 16): 2
ELISA 1:40 on 4 peptides Scale: 1+-3+ (human sera; human serum sample # 18): 2.5
ELISA 1:40 on 4 peptides Scale: 1+-3+ (human sera; human serum sample # 21): 1.5
ELISA 1:40 on 4 peptides Scale: 1+-3+ (human sera; human serum sample # 22): 1.5
ELISA 1:40 on 4 peptides Scale: 1+-3+ (human sera; human serum sample # 23): 2
ELISA 1:40 on 4 peptides Scale: 1+-3+ (human sera; human serum sample # 24): 3
ELISA 1:40 on 4 peptides Scale: 1+-3+ (human sera; human serum sample # 26): 2
